Columns and labels:
[1] = tested on: LTB4 production by calcium ionophore-stimulated murine blood; assay: LTB4 production by calcium ionophore-stimulated murine blood for LTA4H inhibitor activity; format: cell-based, CD-1 mice; conditions: Mus musculus; murine blood diluted 1 in 15, calcium ionophore A23187, LTB4 by immunoassay; read-out: IC50
Procedure, shortened: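 Heparinized CD-1 mouse blood pre-incubated with compound 15 min at 37° C, then stimulated with calcium ionophore A23187 (7 μg/mL final) for 30 min. LTB4 in supernatant measured by enzyme immunoassay; values are single or averaged determinations, with SD for n≥3.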

[2] = tested on: ex vivo stimulated LTB4 production; assay: Murine arachidonic acid-induced inflammation model: ex vivo stimulated LTB4 production (% Inh. LTB4); conditions: Mus musculus; female Balb/c mice, 30 mg/kg oral gavage; blood taken 3 h after arachidonic acid, ex vivo A23187 stimulation; number of determinations in parentheses
Protocol: (§1) Assay 4: Murine Arachidonic Acid-Induced Inflammation Model
(§2) LTA4H inhibitor compounds of the present invention were dissolved in 20% cyclodextran/H2O at a concentration of 3 mg/mL. The solutions were administered by oral gavage to female Balb/c mice weighing approximately 20 grams each (0.2 mL per mouse, 30 mg of LTA4H inhibitor compound per kg). Sixty minutes after being administered an LTA4 inhibitor, each mouse received topical application of 20 μL of arachidonic acid (100 mg/mL in acetone) to the left ear and 20 μL of acetone only to the right ear. After 3 h, the mice were sacrificed, blood was withdrawn in heparinized syringes, and 8 mm ear biopsies were taken. Ear biopsies were weighed to determine edema and then frozen at −80° C. until needed for determination of neutrophil influx.
One hundred-microliter aliquots of heparinized blood were added to wells of a microtiter plate, along with equal volumes of RPMI-1640 medium, and calcium ionophore A23187 was added to each sample well (final concentration=[…]). The microtiter plate contents were incubated for 30 min at 37° C. in a humidified incubator. The reaction was terminated by centrifugation (833×g, 10 min at 4° C.). Supernatants were analyzed for LTB4 by a commercially available enzyme-linked immunoassay (Cayman Chemical Co.) in accordance with the manufacturer's instructions. The percent inhibition of ex vivo stimulated LTB4 production (% Inh. LTB4) was determined by comparison to animals treated identically except that the solution administered by oral gavage was devoid of inhibitor compound.
(§3) The number of determinations is indicated in parentheses following each value

[3] = target: T1, recombinant human LTA4 hydrolase (rhLTA4H) (Homo sapiens, UniProt P09960); assay: Recombinant human LTA4 hydrolase assay for LTA4 hydrolase inhibitor activity; format: biochemical; conditions: rhLTA4H, LTA4 substrate, LTB4 by immunoassay; single determination or average; read-out: IC50
T1 construct: made in house; host or cells: Spodoptera frugiperda (Sf-9) cells, recombinant baculovirus (pFastBac1)
T1 sequence (P09960 1-611): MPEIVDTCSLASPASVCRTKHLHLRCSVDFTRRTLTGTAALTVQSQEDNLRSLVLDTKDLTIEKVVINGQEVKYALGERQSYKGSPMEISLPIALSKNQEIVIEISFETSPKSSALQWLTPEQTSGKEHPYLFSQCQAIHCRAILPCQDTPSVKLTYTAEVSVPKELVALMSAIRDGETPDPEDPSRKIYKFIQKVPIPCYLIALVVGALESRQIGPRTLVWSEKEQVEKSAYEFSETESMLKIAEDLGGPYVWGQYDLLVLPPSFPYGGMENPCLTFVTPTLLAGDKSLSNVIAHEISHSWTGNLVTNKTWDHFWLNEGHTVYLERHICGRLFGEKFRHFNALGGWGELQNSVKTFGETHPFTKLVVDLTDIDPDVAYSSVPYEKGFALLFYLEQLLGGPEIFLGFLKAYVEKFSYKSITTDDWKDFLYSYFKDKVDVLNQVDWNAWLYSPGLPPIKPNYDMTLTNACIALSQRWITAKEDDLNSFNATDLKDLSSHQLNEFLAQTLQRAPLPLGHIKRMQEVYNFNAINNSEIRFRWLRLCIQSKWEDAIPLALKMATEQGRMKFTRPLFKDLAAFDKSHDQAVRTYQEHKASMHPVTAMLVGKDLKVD
Procedure, shortened: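 Recombinant human LTA4H from baculovirus-infected Sf-9 cells (10 ng) pre-incubated 10 min at rt with compound (10% DMSO in dilutions), then reacted with free-acid LTA4 for 30 min at rt. LTB4 measured by ELISA; IC50 by nonlinear regression. Values are single determinations or averages.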

[4] = tested on: neutrophil influx; assay: Murine arachidonic acid-induced inflammation model: neutrophil influx in ear, myeloperoxidase activity (% Inh. MPO); format: in vivo; conditions: Mus musculus, female Balb/c mice, 30 mg/kg oral gavage, ear biopsy 3 h after topical arachidonic acid, number of determinations in parentheses
Protocol: as §1, §2
Neutrophil influx was quantified by measuring the activity of myeloperoxidase (MPO), a neutrophil-specific enzyme. The ear biopsies were homogenized in 0.5 mL extraction buffer (0.3 M sucrose, 0.22% (w/v) hexadecyl trimethyl ammonium bromide (CTAB), and 2.5 mM citrate prepared from 0.5 M citrate stock solution (pH 5.0)), in a Fast-Prep-24 (MP™) (40 seconds at 6 mps). Debris was removed by centrifugation at 14000×g for 10 min. Aliquots of 10 μL of the resulting supernatant were added to wells of a microtiter plate, along with 90-μL aliquots of dilution buffer (10 mM citrate, 0.22% CTAB), followed by addition of 20 μL TMB liquid substrate system (Sigma Chemical Co.) to each sample well. The microtiter plate contents were held at room temperature until the sample with the highest concentration of MPO reached an absorbance value of 0.4 at 650 nm. The reaction was stopped by addition of 50 μL 1 M H2SO4 to each sample well, and the myeloperoxidase activity in each sample was determined from the absorbance at 405 nm. The background value from the right ear, treated only with acetone, was subtracted from that for the left ear, treated with arachidonic acid in acetone, for each animal. The percent inhibition of neutrophil influx (% Inh. MPO) by compounds of the invention was determined by comparison to animals treated identically, except that the solution administered by oral gavage was devoid of inhibitor compound.
as §3

SMILES: CC(=O)N[C@H]1C[C@H]2CC[C@@H](C1)N2CCc1ccc(Oc2nc3cccnc3s2)cc1 [Example 52, meso-N-[(3-endo)-8-{2-[4-([1,3]Thiazolo[5,4-b]pyridin-2-yloxy)phenyl]ethyl}-8-azabicyclo[3.2.1]oct-3-yl]acetamide]
- IC50 [1]: 13 nM
- inhibition at 30 mg/kg [2]: 78.3%
- IC50 [3]: 1 nM
- inhibition in vivo at 30 mg/kg [4]: 60.2%

SMILES: NC(=O)C1CCN(Cc2ccc(Oc3nc4ncccc4s3)cc2)CC1 [Example 100, 1-[4-([1,3]Thiazolo[4,5-b]pyridin-2-yloxy)benzyl]piperidine-4-carboxamide]
- IC50 [1]: 110 nM
- inhibition at 30 mg/kg [2]: 85.3%
- IC50 [3]: 7.2 nM
- inhibition in vivo at 30 mg/kg [4]: 88.7%

SMILES: CC(=O)N1C[C@H]2C[C@@H]1CN2CCc1ccc(Oc2nc3ncccc3s2)cc1 [Example 79, 2-(4-{2-[(1R,4R)-5-Acetyl-2,5-diazabicyclo[2.2.1]hept-2-yl]ethyl}phenoxy)[1,3]thiazolo[4,5-b]pyridine]
- IC50 [1]: 20 nM
- inhibition at 30 mg/kg [2]: 86.7%
- IC50 [3]: 6 nM
- inhibition in vivo at 30 mg/kg [4]: 82.2%

SMILES: OC[C@@H]1CCCN1Cc1ccc(Oc2nc3ncccc3s2)cc1 [Example 108, {(2S)-1-[4-([1,3]Thiazolo[4,5-b]pyridin-2-yloxy)benzyl]pyrrolidin-2-yl}methanol]
- IC50 [1]: 8 nM
- inhibition at 30 mg/kg [2]: 79.8%
- IC50 [3]: 2.4 nM
- inhibition in vivo at 30 mg/kg [4]: 71.4%

SMILES: CC(=O)N1CC2CN(Cc3ccc(Oc4nc5ncccc5s4)cc3)CC2C1 (stereo not drawn) [Example 276, 2-{4-[(5-Acetylhexahydropyrrolo[3,4-c]pyrrol-2(1H)-yl)methyl]phenoxy}[1,3]thiazolo[4,5-b]pyridine]
- IC50 [1]: 10 nM
- inhibition at 30 mg/kg [2]: 57.4%
- IC50 [3]: 3 nM
- inhibition in vivo at 30 mg/kg [4]: 94.9%

SMILES: c1cnc2nc(Oc3ccc(CN4CCOCC4)cc3)sc2c1 [Example 86, 2-[4-(Morpholin-4-ylmethyl)phenoxy][1,3]thiazolo[4,5-b]pyridine]
- IC50 [1]: 60 nM
- inhibition at 30 mg/kg [2]: 70.8%
- IC50 [3]: 12 nM
- inhibition in vivo at 30 mg/kg [4]: 51.5%

SMILES: CCN(CC)Cc1ccc(Oc2nc3ncccc3s2)cc1 [Example 111, N-Ethyl-N-[4-([1,3]thiazolo[4,5-b]pyridin-2-yloxy)benzyl]ethanamine]
- IC50 [1]: 30 nM
- inhibition at 30 mg/kg [2]: 56.8%
- IC50 [3]: 6.6 nM
- inhibition in vivo at 30 mg/kg [4]: 66.9%

SMILES: NC(=O)C1CCN(CCc2ccc(Oc3nc4ncccc4s3)cc2)CC1 [Example 66, 1-{2-[4-([1,3]Thiazolo[4,5-b]pyridin-2-yloxy)phenyl]ethyl}piperidine-4-carboxamide]
- IC50 [1]: 40 nM
- inhibition at 30 mg/kg [2]: 76.2%
- IC50 [3]: 12 nM
- inhibition in vivo at 30 mg/kg [4]: 60%

SMILES: CC(=O)N[C@@H]1C[C@H]2CC[C@@H](C1)N2CCOc1ccc(Oc2nc3ncccc3s2)cc1 [Example 17, meso-N-[(3-exo)-8-{2-[4-([1,3]Thiazolo[4,5-b]pyridin-2-yloxy)phenoxy]ethyl}-8-azabicyclo[3.2.1]oct-3-yl]acetamide]
- IC50 [1]: 25 nM
- inhibition at 30 mg/kg [2]: 81.5%
- IC50 [3]: 2 nM
- inhibition in vivo at 30 mg/kg [4]: 63.4%

SMILES: CC(=O)N1CC2CN(CCOc3ccc(Oc4nc5ncccc5s4)cc3)CC2C1 (stereo not drawn) [Example 18, 2-{4-[2-(5-Acetylhexahydropyrrolo[3,4-c]pyrrol-2(1H)-yl)ethoxy]phenoxy}[1,3]thiazolo[4,5-b]pyridine]
- IC50 [1]: 32 ± 24 nM
- inhibition at 30 mg/kg [2]: 80.9%
- IC50 [3]: 5.5 nM
- inhibition in vivo at 30 mg/kg [4]: 86.1%

SMILES: c1cnc2nc(Oc3ccc(OCCN4CCCCC4)cc3)sc2c1 [Example 10, 2-[4-(2-Piperidin-1-ylethoxy)phenoxy][1,3]thiazolo[4,5-b]pyridine]
- IC50 [1]: 19 nM
- inhibition at 30 mg/kg [2]: 68%
- IC50 [3]: 5 nM
- inhibition in vivo at 30 mg/kg [4]: 62.2%

SMILES: CCN(CCO)CCc1ccc(Oc2nc3ncccc3s2)cc1 [Example 56, 2-(Ethyl{2-[4-([1,3]thiazolo[4,5-b]pyridin-2-yloxy)phenyl]ethyl}amino)ethanol]
- IC50 [1]: 5 nM
- inhibition at 30 mg/kg [2]: 71.2%
- IC50 [3]: 1.9 nM
- inhibition in vivo at 30 mg/kg [4]: 81.6%

SMILES: NC(=O)N1C[C@H]2CC[C@@H](C1)N2CCc1ccc(Oc2nc3ncccc3s2)cc1 [Example 54, meso-8-{2-[4-([1,3]Thiazolo[4,5-b]pyridin-2-yloxy)phenyl]ethyl}-3,8-diazabicyclo[3.2.1]octane-3-carboxamide]
- IC50 [1]: 75 ± 71 nM
- inhibition at 30 mg/kg [2]: 81.2%
- IC50 [3]: 9.6 nM
- inhibition in vivo at 30 mg/kg [4]: 87.7%

SMILES: c1cnc2nc(Oc3ccc(CN4CCC(N5CCOCC5)CC4)cc3)sc2c1 [Example 257, 2-{4-[(4-Morpholin-4-ylpiperidin-1-yl)methyl]phenoxy}[1,3]thiazolo[4,5-b]pyridine]
- IC50 [1]: 97 nM
- inhibition at 30 mg/kg [2]: 86%
- IC50 [3]: 29 nM
- inhibition in vivo at 30 mg/kg [4]: 70.5%

SMILES: c1cnc2nc(Oc3ccc(CN4CCCCC4)cc3)sc2c1 [Example 85, 2-[4-(Piperidin-1-ylmethyl)phenoxy][1,3]thiazolo[4,5-b]pyridine]
- IC50 [1]: 37 nM
- inhibition at 30 mg/kg [2]: 66.8%
- IC50 [3]: 2.9 nM
- inhibition in vivo at 30 mg/kg [4]: 48.4%

SMILES: CC(=O)N[C@H]1C[C@H]2CC[C@@H](C1)N2CCOc1ccc(Oc2nc3ncccc3s2)cc1 [Example 16, meso-N-[(3-endo)-8-{2-[4-([1,3]Thiazolo[4,5-b]pyridin-2-yloxy)phenoxy]ethyl}-8-azabicyclo[3.2.1]oct-3-yl]acetamide]
- IC50 [1]: 26 nM
- inhibition at 30 mg/kg [2]: 84.6%
- IC50 [3]: 3 nM
- inhibition in vivo at 30 mg/kg [4]: 73.6%

SMILES: c1cnc2nc(Oc3ccc(CCN4CCCC4)cc3)sc2c1 [Example 61, 2-[4-(2-Pyrrolidin-1-ylethyl)phenoxy][1,3]thiazolo[4,5-b]pyridine]
- IC50 [1]: 11 nM
- inhibition at 30 mg/kg [2]: 67.4%
- IC50 [3]: 4 nM
- inhibition in vivo at 30 mg/kg [4]: 62.8%

SMILES: c1cnc2nc(Oc3ccc(CCN4CCCCC4)cc3)sc2c1 [Example 60, 2-[4-(2-Piperidin-1-ylethyl)phenoxy][1,3]thiazolo[4,5-b]pyridine]
- IC50 [1]: 15 nM
- inhibition at 30 mg/kg [2]: 69.5%
- IC50 [3]: 3 nM
- inhibition in vivo at 30 mg/kg [4]: 35.8%

SMILES: NC(=O)C1CCN(Cc2ccc(Oc3nc4ncc(F)cc4s3)cc2)CC1 [Example 283, 1-{4-[(6-Fluoro[1,3]thiazolo[4,5-b]pyridin-2-yl)oxy]benzyl}piperidine-4-carboxamide]
- IC50 [1]: 68 nM
- inhibition at 30 mg/kg [2]: 78.2%
- inhibition in vivo at 30 mg/kg [4]: 88.3%

From patent US20110190503A1, “Thiazolopyridin-2-yloxy-phenyl and thiazolopyrazin-2-yloxy-phenyl amines as modulators of leukotriene A4 hydrolase” (Janssen Pharmaceutical NV, priority 2008, published 2011)
